How the values were obtained:
[1] = tested on: Yolk sac endothelial cells (YSECs); settings: for rescue of tube formation in IBMX+NK-B treated cells: 100 ng/ml mouse VEGF164 or 30 ng/ml mouse bFGF
Protocol: (§1) Vascular network assembly was assessed by measuring the formation of capillary-like structures by endothelial cells on Matrigel (BD Biosciences, San Jose, Calif.). Matrigel was diluted 1:1 with supplement-free M200 medium, poured in 24-well plates, and allowed to solidify at 37° C. Subconfluent endothelial cells were harvested and preincubated under different experimental conditions (YSECs, 1 h; HUVECs, HAECs, and human microvascular endothelial cells (HMVECs), 2 h in supplement-free M200 medium in microfuge tubes. An equal volume of supplemented medium containing the indicated reagents was added. Cells were plated on Matrigel (1.5×10^5 cells/well) and incubated at 37° C. Vascular network assembly was measured as a function of time, and digital pictures were captured.

[2] = tested on: Flt-1 and Flk-1 (VEGF receptors) in YSECs; test: Gene expression analysis by real-time RT-PCR; format: cell-based, mouse; settings: for rescue of Flt-1 and Flk-1 expression and cell signaling: NK-B/IBMX-treated YSECs, growth factor 100 ng/ml
Protocol: Real-time RT-PCR was conducted Total RNA was purified with Trizol (Invitrogen). cDNA was prepared by annealing RNA (1 μg) with 250 ng of a 1:5 mixture of random and oligo(dT) primers (Promega) at 68° C. for 10 min, followed by incubation with Moloney Murine Leukemia Virus reverse transcriptase (Invitrogen) with 10 mM dithiothreitol, RNasin (Promega), and 0.5 mM dNTPs at 42° C. for 1 h. Reactions were diluted to a final volume of 100 μl and subjected to heat-inactivation at 98° C. for 10 min. Reactions (25 μl) contained 2.5 μl of cDNA, 12.5 μl of SYBR Green Master Mix (Applied Biosystems), and appropriate primers. Product accumulation was monitored by SYBR Green fluorescence. Control reactions lacking RT yielded little or no signals. The relative expression levels were determined from a standard curve of serial dilutions of cDNA samples from untreated control cells, and measurements were conducted under conditions of linearity.
Real time RT-PCR primers were designed using PRIMER EXPRESS 1.0 (PE Applied Biosystems) to amplify 50-150 bp amplicons and were based on GenBank Ensembl sequences.

[3] = tested on: human aortic endothelial cells (HAECs); test: Vascular network assembly assay on Matrigel; format: cell-based; settings: NK-B, U46619 (2 μM) or both, 2 h, 16 h on Matrigel
Protocol: as §1

[4] = tested on: HUVECs; test: Vascular network assembly assay on Matrigel; format: cell-based, human
Protocol: as §1

[5] = tested on: YSECs; test: Calcium imaging (Ca+2 oscillations); format: cell-based, mouse; settings: YSECs on Matrigel, supplemented medium
Protocol: Cells were incubated for ˜30 min in 4 μM fluo-4/AM (Molecular Probes, Carlsbad, Calif.) in supplement-free M200 medium at 37° C., trypsinized, plated on Matrigel with indicated reagents, and allowed to adhere for 10 min. Time-lapse video microscopy with an Olympus AX70 laser scanning confocal microscope was used to measure intracellular Ca^+2 as described previously (Robles et al., 2003). An argon laser at 488 nm was used to excite Fluo-4, and the emitted light was detected at wavelengths>510 nm. Images were acquired at 15 s intervals and analyzed using Image J (Image Processing and Analysis in JAVA, Nat'l Inst. Health). When indicated, the fluorescence intensity in the region of interest (F) was normalized by dividing the Ca+2 signal by the fluorescence intensity of the resting cell at time 0 (F0).

[6] = tested on: YSECs; test: cAMP assay; format: cell-based, mouse; settings: supplement-free M200 medium
Protocol: Cells were cultured in 6-well plates (2×10^5 cells/well), washed with supplement-free M200 medium and treated with indicated reagents at 37° C. The reactions were terminated by aspiration of the medium. Cells were washed with PBS and lysed in 500 μl of 0.1 N HCl containing 0.5% Triton X-100. cAMP was assayed in cell lysates (100 μl) using a direct cAMP enzyme-linked immunosorbent assay (Assay Designs, Inc., Ann Arbor, Mich.).

[7] = tested on: chorioallantoic membrane (CAM); test: Chick chorioallantoic membrane assay; format: in vivo, chicken; settings: L733060 5 μM, SB222200 2 μM, alone or combined; day 7 embryos, 48 h
Protocol: Fertilized chicken eggs were incubated at 39° C. with 90% humidity. On embryonic day 7, a small hole was drilled at the end of the egg that contains the air sac to lower the embryo. A second hole was made above the chorioallantoic membrane (CAM), and 100 μl of a 1.5% solution of methylcellulose (Stem Cell Technologies, Vancouver, BC) containing either FGF2 (500 ng) or VEGF (200 ng) and vehicle, IBMX (100 μg), NK-B (40 μg)/IBMX, or mutant NK-B (40 μg)/IBMX were applied to the CAM. A solution of penicillin/streptomycin was added, and the eggs were sealed with transparent tape. Vasculature was analyzed after 48 h, and digital images were captured at 40× magnification.

[8] = tested on: calreticulin in YSECs; test: Calreticulin 2D gel electrophoresis and Western blot; format: cell-based, mouse; settings: 2 μM ionomycin, 1 h, supplement-free M200 medium
Protocol: […] Cells were processed and proteins analyzed as described above in Example 2.
Cells were harvested, washed twice with ice-cold PBS, and lysed in lysis buffer containing 10 mM Tris (pH 7.4), 0.3% SDS, 100 μg/mL Ribonuclease A (Sigma), 200 μg/mL DNase I (Sigma), 20 μg/mL leupeptin (Sigma), 6 μg/mL E-64 (Sigma), 1 mM EDTA (Calbiochem), and 100 μg/mL benzamidine (Sigma). Cells were incubated on ice for 30 min, an equal volume of loading buffer containing 60 mM Tris (pH 6.8), 5% SDS, 10% glycerol was added, and samples were boiled for 5 min. 2D gel electrophoresis was conducted using pH 3.5-10 ampholines, and proteins were detected by Coomassie Blue staining. […]
The following antibodies were used for Western blots: Anti-phospho-FAK (Tyr-397) (Biosource, 44-624G); anti-FAK, anti-phospho-Akt (Ser 473), anti-Akt, anti-phospho-p44/42 MAP kinase (Thr 202/Tyr 204), anti-p44/42 MAP kinase antibodies (Cell Signaling Technology); anti-calreticulin (Upstate, 06-661); anti-α-tubulin (Calbiochem); anti Flt-1 (Santa Cruz Biotech, C-17); anti-Flk-1 (Cell Signaling Technologies, 2479). […] Extracts were resolved on SDS polyacrylamide gels, transferred to Immobilon P membranes (Millipore, Billerica, Mass.), and analyzed by Western blotting. Proteins were detected by chemiluminescence using ECL-Plus (Amersham Biosciences Piscataway, N.J.).

FGF2: fibroblast growth factor-2 (bovine FGF2 from R & D systems; also called mouse FGF2/bFGF)
rescue of tube formation in IBMX+NK-B treated cells [1]: but not bFGF Rescues the NK-B Effect
rescue of Flt-1 and Flk-1 expression and cell signaling [2]: but not FGF2, rescues Flt-1 and Flk-1 expression and cell signaling
FGFR1 transcription ([2]; YSECs, 100 ng/ml FGF2 with or without NK-B): increased

CC(C)Cn1c(=O)n(C)c(=O)c2[nH]cnc21 [IBMX, 3-Isobutyl-1-methylxanthine]
vascular network assembly (capillary like tube formation) ([1]; 250 μM IBMX, 10 μM forskolin, 100 μM NK-B, 20 h, 3 experiments): has little effect on vascular network assembly

CCCCC[C@H](O)/C=C/[C@@H]1[C@@H](C/C=C\CCCC(=O)O)[C@H]2CO[C@@H]1C2 [U46619]
vascular network assembly ([1]; NK-B, U46619 (2 μM) or both, 1 h, 16 h on Matrigel): had little effect
vascular network assembly [3]: had little effect
vascular network assembly ([4]; NK-B, U46619 (2 μM) or both, 2 h, 16 h on Matrigel): had little effect
Ca+2 oscillations [5]: decreasing the amount of Ca^2+ oscillations
cAMP [6]: decrease the amount of cAMP

Cl.FC(F)(F)c1cc(CO[C@H]2CCCN[C@H]2c2ccccc2)cc(C(F)(F)F)c1 [L733060]
microvessel density of CAM [7]: much higher

C[C@H](CCC(=O)O)C[C@H](C)C[C@H](C)C(=O)/C=C(\O)[C@H](C)C[C@H](C)C/C=C/[C@@H](C)[C@@H](O)[C@@H](C)[C@@H](O)C[C@@H]1CC[C@@](C)([C@H]2CC[C@@](C)([C@@H](C)O)O2)O1 [ionomycin]
calreticulin/alpha-tubulin ratio increase [8]: ~2 fold

VEGF
rescue of tube formation in IBMX+NK-B treated cells [1]: can form capillary-like tubes but in a slower kinetics
rescue of Flt-1 and Flk-1 expression and cell signaling [2]: rescues Flt-1 and Flk-1 expression and cell signaling

CC[C@H](NC(=O)c1c(C)c(-c2ccccc2)nc2ccccc12)c1ccccc1 [SB222200, (S)-3 methyl-2-phenyl-N-(1-phenylpropyl)-4-quinilinecarboxamide]
microvessel density of CAM [7]: much higher

B1: calreticulin: E. coli overexpressed and purified recombinant calreticulin, anti-angiogenic protein (protein, UniProt P27797 18-417, looked up)
Calreticulin: EPAVYFKEQFLDGDGWTSRWIESKHKSDFGKFVLSSGKFYGDEEKDKGLQTSQDARFYALSASFEPFSNKGQTLVVQFTVKHEQNIDCGGGYVKLFPNSLDQTDMHGDSEYNIMFGPDICGPGTKKVHVIFNYKGKNVLINKDIRCKDDEFTHLYTLIVRPDNTYEVKIDNSQVESGSLEDDWDFLPPKKIKDPDASKPEDWDERAKIDDPTDSKPEDWDKPEHIPDPDAKKPEDWDEEMDGEWEPPVIQNPEYKGEWKPRQIDNPDYKGTWIHPEIDNPEYSPDPSIYAYDNFGVLGLDLWQVKSGTIFDNFLITNDEAYAEEFGNETWGVTKAAEKQMKDKQDEEQRLKEEEEDKKRKEEEEAEDKEDDEDKDEDEEDEEDKEEDEEEDVPGQAKDEL
Flt-1 and Flk-1 transcription ([2]; YSECs, forskolin (10 μM)/IBMX, calreticulin (13 μg/ml), vasostatin (5 μg/ml), 1, 2 or 5 h on Matrigel): failed to affect Flt-1 and Flk-1 transcription
vascular network assembly ([4]; calreticulin 13 μg/ml, vasostatin 5 μg/ml, 1 h): inhibit YSEC and HUVEC vascular network assembly
